Consider twelve compounds from ChEMBL document CHEMBL1147517, “Potent and selective inhibitors of bacterial methionyl tRNA synthetase derived from an oxazolone-dipeptide scaffold” (Bioorg Med Chem Lett, 2004).

Experiment [1] concerns the target T1, Methionine--tRNA ligase, cytoplasmic (Homo sapiens, UniProt P56192).
T1 sequence (P56192 whole entry): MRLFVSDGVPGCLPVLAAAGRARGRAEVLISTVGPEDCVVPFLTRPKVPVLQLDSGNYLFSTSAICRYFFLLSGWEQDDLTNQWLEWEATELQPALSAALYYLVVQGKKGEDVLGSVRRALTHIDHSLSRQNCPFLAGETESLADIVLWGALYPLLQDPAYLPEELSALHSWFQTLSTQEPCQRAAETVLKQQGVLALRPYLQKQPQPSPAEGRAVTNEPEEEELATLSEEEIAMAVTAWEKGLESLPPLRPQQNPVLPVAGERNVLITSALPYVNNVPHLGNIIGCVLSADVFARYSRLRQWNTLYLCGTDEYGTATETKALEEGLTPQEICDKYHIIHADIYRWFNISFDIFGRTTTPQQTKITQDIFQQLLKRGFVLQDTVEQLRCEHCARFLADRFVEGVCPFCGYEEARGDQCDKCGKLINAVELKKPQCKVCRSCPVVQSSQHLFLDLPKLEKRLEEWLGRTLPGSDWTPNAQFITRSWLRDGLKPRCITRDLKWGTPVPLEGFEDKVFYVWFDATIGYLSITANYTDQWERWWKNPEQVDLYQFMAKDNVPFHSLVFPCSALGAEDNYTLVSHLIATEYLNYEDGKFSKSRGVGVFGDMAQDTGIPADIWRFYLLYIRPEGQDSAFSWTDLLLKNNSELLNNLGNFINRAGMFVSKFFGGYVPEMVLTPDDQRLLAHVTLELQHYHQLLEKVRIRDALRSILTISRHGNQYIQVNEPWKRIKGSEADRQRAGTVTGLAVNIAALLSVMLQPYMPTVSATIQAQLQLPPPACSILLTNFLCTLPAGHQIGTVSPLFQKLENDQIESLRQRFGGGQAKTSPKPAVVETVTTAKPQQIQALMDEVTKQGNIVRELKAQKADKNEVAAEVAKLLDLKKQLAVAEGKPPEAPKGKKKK
Kind of experiment: Inhibition of human methionyl-tRNA synthetase (fMetRS).

The target of experiment [2] is T2, Methionine--tRNA ligase, cytoplasmic (Homo sapiens) (UniProt P56192).
T2 sequence (whole entry): T1 sequence (P56192 whole entry)
Kind of experiment: Inhibition of human methionyl-tRNA synthetase (fMetRS) at the concentration of 10 uM.

Experiment [3] has as its system Methionine--tRNA ligase (Enterococcus faecalis). As to the kind of experiment: Inhibition of Enterococci faecalis methionyl-tRNA synthetase (EfMetRS) at the concentration of 10 uM.
Experiment [4] has as its system Methionine--tRNA ligase (Staphylococcus aureus). Kind of experiment: Inhibition of Staphylococcus aureus methionyl-tRNA synthetase (SaMetRS) at the concentration of 10 uM.
Experiment [5] deals with Methionine--tRNA ligase (Enterococcus faecalis). Kind of experiment: Inhibition of Enterococci faecalis methionyl-tRNA synthetase (EfMetRS); Inactive.

SMILES strings stand for the structures.

`CCC/C(=C1/N=C(c2ccc(Br)cc2)OC1=O)N1CC[C@H]1C(=O)N[C@@H](Cc1ccc(O)cc1)C(N)=O` returned a concentration for half-maximal inhibition (IC50) in experiment [1] above 100 µM.

`CCC/C(=C1/N=C(c2ccc(Br)cc2)OC1=O)N1CCC[C@H]1C(=O)N[C@@H](Cc1ccc(O)cc1)C(N)=O`: the IC50 in experiment [1] was above 100 µM.

The compound `NC(=O)[C@H](Cc1ccc(O)cc1)NC(=O)[C@@H]1CCCN1/C=C1\N=C(c2ccc(Cl)cc2Cl)OC1=O` had an IC50 in experiment [1] above 100 µM.

As for `NC(=O)[C@H](Cc1ccc(O)cc1)NC(=O)C1CCCN(/C=C2\N=C(c3ccc(Cl)cc3Cl)OC2=O)C1` (some centres undefined), the inhibition worked out at 20% in experiment [2], 2% in experiment [3] and 43% in experiment [4].

As to `NC(=O)[C@H](Cc1ccc(O)cc1)NC(=O)[C@@H]1CCN1/C=C1\N=C(c2ccc(Br)cc2)OC1=O`, the IC50 in experiment [1] is above 100 µM.

As for `NC(=O)[C@H](Cc1ccc(O)cc1)NC(=O)C1CCN(/C=C2\N=C(c3ccc(Br)cc3)OC2=O)CC1`, the values for the inhibition in experiment [2], in experiment [3] and in experiment [4] were 6%, 7% and 1%, respectively.

Turning to `NC(=O)[C@H](Cc1ccc(O)cc1)NC(=O)C1CCCCN1/C=C1\N=C(c2ccc(Br)cc2)OC1=O` (some centres undefined), the inhibition worked out at 19% in experiment [2], 7% in experiment [3] and 55% in experiment [4].

Take `NC(=O)[C@H](Cc1ccc(O)cc1)NC(=O)C1CCCN(/C=C2\N=C(c3ccc(Br)cc3)OC2=O)C1` (some centres undefined): the inhibition in experiment [2] worked out at 23%; in experiment [4], 39%. Besides, in experiment [5], the IC50 result is “Not Active”.

As for `NC(=O)[C@H](Cc1ccc(O)cc1)NC(=O)C1CCCCN1/C=C1\N=C(c2ccc(Cl)cc2Cl)OC1=O` (some centres undefined), the inhibition in experiment [2] stood at 88%; in experiment [3] it was 60%; in experiment [4], 73%.

In experiment [1], `CC/C(=C1/N=C(c2ccc(Br)cc2)OC1=O)N1CCC[C@H]1C(=O)N[C@@H](Cc1ccc(O)cc1)C(N)=O` showed an IC50 above 100 µM.

As for `NC(=O)[C@H](Cc1ccc(O)cc1)NC(=O)C1CCN(/C=C2\N=C(c3ccc(Cl)cc3Cl)OC2=O)CC1`, the inhibition in experiment [2] stood at 5%; in experiment [3] it was 5%; in experiment [4] it was 3%.

Consider `NC(=O)[C@H](Cc1ccc(O)cc1)NC(=O)[C@@H]1CCCN1/C=C1\N=C(c2ccc(Br)cc2)OC1=O`, for which, in experiment [2], the inhibition is 5%.
